Experiments:
[1] = target: T1, yeast RNA triphosphatase Cet1p (Saccharomyces cerevisiae, UniProt O13297); assay: Manganese-dependent ATP hydrolysis by Cet1p; assay type: biochemical; settings: truncated Cet1(201-549)p
T1 construct: His-tag; made in house; host or cells: Escherichia coli BL21(DE3)
Method: (§1) (FIG. 8A) Protein titration. Reaction mixtures (10 μl) containing 50 mM Tris HCl (pH 7.0), 5 mM DTT, 2 mM MnCl2, 1 mM [γ^32P]ATP, and either Cet1p, Cet1(201-549)p, or Cet1(246-549)p were incubated for 15 min at 30° C. Pi release is plotted as a function of input protein. (FIG. 8B) Kinetics. Reaction mixtures (100 μl) containing 50 mM Tris HCl (pH 7.0), 5 mM DTT, 2 mM MnCl2, 1 mM [γ^32P]ATP, and either 8, 16, or 32 nM Cet1p were incubated at 30° C. Aliquots (10 μl) were withdrawn at the times indicated and quenched immediately by the addition of […] of 5 M formic acid. Pi release is plotted as a function of time. (FIG. 8C) Hydrolysis of [α^32P]ATP. […] The products were analyzed by TLC. […] An otherwise identical reaction containing 1 mM [γ^32P]ATP was analyzed in parallel; Pi release (●). […]
(§2) The extent of ^32Pi relase from [Υ^32P]ATP during a 15 min reaction was proportional to the amount of input Cetlp protein (FIG. 8A). ^32Pi accumulated with time over 30 min; the rate of reaction varied linearly with Cetlp concentration (FIG. 8B). From a plot of initial rate versus enzyme concentration, a turnover number of 25 s^−1 was calculated. Cetlp catalyzed the quantitative conversion of [α^32P]ATP to [α^32P]ADP. […] No formation of [α^32P]AMP from [α^32P]ATP was detected, even after 20-45 min of incubation, by which time all of the nucleotide had been converted to ADP. […]

[2] = target: T2, yeast RNA triphosphatase Cet1p (Saccharomyces cerevisiae, UniProt O13297); assay: Manganese-dependent ATP hydrolysis by Cet1p; assay type: biochemical; settings: full-length Cet1p, 2 mM MnCl2, pH 7.0, 30° C.
T2 construct: His-tag; made in house; host or cells: Escherichia coli BL21(DE3)
T2 sequence (O13297 1-549): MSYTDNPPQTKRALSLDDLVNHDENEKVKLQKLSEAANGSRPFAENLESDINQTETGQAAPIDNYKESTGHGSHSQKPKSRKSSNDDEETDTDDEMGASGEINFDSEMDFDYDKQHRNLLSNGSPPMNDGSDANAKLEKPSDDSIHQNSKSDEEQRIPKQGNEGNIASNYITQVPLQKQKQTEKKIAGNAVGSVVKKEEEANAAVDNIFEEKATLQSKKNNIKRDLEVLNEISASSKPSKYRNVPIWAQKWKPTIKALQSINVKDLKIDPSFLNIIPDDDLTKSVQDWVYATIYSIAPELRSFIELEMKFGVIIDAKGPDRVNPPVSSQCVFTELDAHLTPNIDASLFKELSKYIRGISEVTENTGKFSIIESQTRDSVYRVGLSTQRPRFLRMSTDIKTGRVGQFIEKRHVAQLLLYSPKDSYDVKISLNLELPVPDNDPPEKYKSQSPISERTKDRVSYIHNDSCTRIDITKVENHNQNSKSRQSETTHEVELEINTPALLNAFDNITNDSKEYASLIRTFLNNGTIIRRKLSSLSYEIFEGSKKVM
Method: as §1, §2

LEF-4 = LEF-4 (Autographa californica nuclear polyhedrosis virus, UniProt P41477); settings: read-out: Km for ATP; cited from earlier work
vaccinia triphosphatase = vaccinia triphosphatase (Vaccinia virus, UniProt P04298); settings: read-out: Km for ATP; cited from earlier work
[3] = target: T3, human cap methyltransferase (Hcm1p) (Homo sapiens, UniProt O43148); assay type: biochemical
T3 construct: His-tag (pET16b leader) (N); made in house; host or cells: Escherichia coli BL21(DE3)

[4] = target: T4, Mce1(1-210)p RNA triphosphatase domain (Mus musculus, UniProt O55236); settings: 0.5 mM divalent cation; cited from earlier work
T4 construct: The N-terminal portion of Mce1p from residues 1-210 is an autonomous RNA triphosphatase domain; made in house; host or cells: bacteria
T4 sequence (O55236 1-210): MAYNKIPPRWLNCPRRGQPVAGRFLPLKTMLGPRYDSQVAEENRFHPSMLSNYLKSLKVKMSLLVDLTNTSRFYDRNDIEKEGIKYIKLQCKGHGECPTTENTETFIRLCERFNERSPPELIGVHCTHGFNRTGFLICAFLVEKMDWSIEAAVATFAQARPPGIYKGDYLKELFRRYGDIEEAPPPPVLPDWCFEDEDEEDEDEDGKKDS

T3 sequence (O43148 whole entry): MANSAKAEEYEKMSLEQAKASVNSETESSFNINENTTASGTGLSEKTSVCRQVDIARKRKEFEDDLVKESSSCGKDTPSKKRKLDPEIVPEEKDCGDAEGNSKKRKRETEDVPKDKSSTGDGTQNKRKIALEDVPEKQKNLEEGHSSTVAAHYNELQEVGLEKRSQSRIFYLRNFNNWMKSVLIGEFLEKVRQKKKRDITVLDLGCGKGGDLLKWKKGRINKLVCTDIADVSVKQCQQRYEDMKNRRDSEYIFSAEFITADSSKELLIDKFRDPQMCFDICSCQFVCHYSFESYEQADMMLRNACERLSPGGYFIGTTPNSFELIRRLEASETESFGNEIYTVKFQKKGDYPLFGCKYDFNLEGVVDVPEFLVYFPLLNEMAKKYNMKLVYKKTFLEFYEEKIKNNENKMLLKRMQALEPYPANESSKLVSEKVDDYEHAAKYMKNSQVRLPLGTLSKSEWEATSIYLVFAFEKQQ
Sequence of LEF-4 (P41477 whole entry): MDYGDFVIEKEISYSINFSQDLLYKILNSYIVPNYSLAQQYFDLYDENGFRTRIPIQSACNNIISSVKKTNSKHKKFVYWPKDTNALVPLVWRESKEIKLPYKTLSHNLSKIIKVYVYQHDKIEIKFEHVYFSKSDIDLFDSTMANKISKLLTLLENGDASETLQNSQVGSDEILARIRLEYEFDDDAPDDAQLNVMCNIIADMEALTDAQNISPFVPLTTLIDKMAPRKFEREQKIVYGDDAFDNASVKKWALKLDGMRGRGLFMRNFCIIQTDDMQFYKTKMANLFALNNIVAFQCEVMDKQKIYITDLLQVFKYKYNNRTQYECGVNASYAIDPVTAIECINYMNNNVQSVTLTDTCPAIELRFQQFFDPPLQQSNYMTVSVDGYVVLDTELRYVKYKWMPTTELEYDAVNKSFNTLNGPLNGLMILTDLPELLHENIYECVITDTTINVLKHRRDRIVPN

For `Nc1ncnc2c1ncn2[C@@H]1O[C@H](COP(=O)(O)OP(=O)(O)OP(=O)(O)O)[C@@H](O)[C@H]1O` [ATP], the Km [1] is listed as 3.3 µM, the Km [2] is listed as 2.8 µM and the Km (LEF-4) is listed as 43 µM. The Km (vaccinia triphosphatase) was 800 µM.

For `Nc1ncnc2c1ncn2[C@@H]1O[C@H](CSCC[C@H](N)C(=O)O)[C@@H](O)[C@H]1O` [AdoHcy, S-adenosylhomocysteine], the “effect on cap methylation (FIG. 9, lane 4)” value ([3]; 50 μM AdoMet plus 500 μM AdoHcy) was “partially inhibitory” and the “reduction of cap methylation” value ([3]; 100 μM AdoHcy in the presence of 10 μM AdoMet) was 80%.

For `C[S+](CC[C@H](N)C(=O)[O-])C[C@H]1O[C@@H](n2cnc3c(N)ncnc32)[C@H](O)[C@@H]1O` (stereo partly shown) [AdoMet, S-adenosylmethionine], the “AdoMet concentration giving half-maximal activity” value ([3]; peak glycerol gradient fraction of Hcm1p) was ~25 µM.

In the case of `[Cl-].[Cl-].[Mg+2]` [MgCl2], the “effect of magnesium on cap methylation” value ([3]; 1 mM magnesium) is listed as “reduced by an order of magnitude” and the “inhibition of RNA triphosphatase activity” value [4] is listed as 75%.

In the case of `[Cl][Mn][Cl]` [MnCl2], the “inhibition of RNA triphosphatase activity” value [4] is listed as 75%.

Source: patent US6420163B1, “Pharmacological targeting of mRNA cap formation” (priority 1998, dated 2002)
